# Assay results: US8163756B2 (priority 2004, dated 2012)
# Columns and labels:
# Format in all cases: biochemical
# B-Raf(V599E) kinase [1] = molecular target: T1, B-Raf(V599E) kinase (Homo sapiens, UniProt P15056, V600E); assay: B-Raf(V599E) kinase assay B2 (construct 2 at 2 nM, 1 h pre-incubation)
# Procedure: (§1) The test compounds were incubated with the reaction mixtureat 30° C. for 2 h. […] The reaction rate was calculated using the […] time frame. […] IC50 values were calculated from a series of percent inhibition values determined at a range of inhibitor concentrations using software routines as implemented in the GraphPad Prism software package.
# Same as assay B1 except that (1) construct 2 was employed at a nominal concentration of 2 nM (2) the reaction was pre-incubated at 30° C. for 1 h prior to initiation with ATP (3) a reading time frame of 0.5 h to 1.5 h.
# Target sequence in this assay (P15056 433-726 V600E): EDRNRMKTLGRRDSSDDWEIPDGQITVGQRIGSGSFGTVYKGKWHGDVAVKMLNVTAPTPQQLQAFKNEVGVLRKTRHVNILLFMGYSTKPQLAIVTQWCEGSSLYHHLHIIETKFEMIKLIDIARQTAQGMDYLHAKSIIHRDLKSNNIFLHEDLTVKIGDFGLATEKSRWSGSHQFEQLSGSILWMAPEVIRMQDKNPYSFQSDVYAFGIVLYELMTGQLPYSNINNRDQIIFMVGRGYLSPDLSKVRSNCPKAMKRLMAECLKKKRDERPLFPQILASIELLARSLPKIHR
# [2] = molecular target: phosphorylated p-38-alpha kinase (Homo sapiens, UniProt Q16539); assay: P-38 alpha kinase assay P1 (coupled spectrophotometric, 2 h pre-incubation); conditions: method P1 (2 h pre-incubation); read-out: P-38 Data
# phosphorylated p-38-alpha kinase, sequence (Q16539 1-360 isoform Q16539-2): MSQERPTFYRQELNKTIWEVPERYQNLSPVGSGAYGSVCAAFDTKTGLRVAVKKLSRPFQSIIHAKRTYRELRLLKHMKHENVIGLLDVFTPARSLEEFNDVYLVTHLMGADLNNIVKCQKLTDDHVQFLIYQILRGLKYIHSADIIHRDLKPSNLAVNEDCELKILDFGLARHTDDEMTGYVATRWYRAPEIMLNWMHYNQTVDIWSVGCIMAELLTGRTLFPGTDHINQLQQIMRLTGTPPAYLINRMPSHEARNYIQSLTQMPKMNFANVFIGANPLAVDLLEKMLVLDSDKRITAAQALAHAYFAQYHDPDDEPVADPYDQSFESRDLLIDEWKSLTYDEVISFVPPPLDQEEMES
# Abl kinase [3] = molecular target: T2, Abl kinase (Homo sapiens, UniProt P00519); assay: Abl kinase assay A1 (pyruvate kinase/lactate dehydrogenase coupled, spectrophotometric); conditions: Method A1; read-out: Abl Data (IC50)
# T2 sequence (P00519 229-512): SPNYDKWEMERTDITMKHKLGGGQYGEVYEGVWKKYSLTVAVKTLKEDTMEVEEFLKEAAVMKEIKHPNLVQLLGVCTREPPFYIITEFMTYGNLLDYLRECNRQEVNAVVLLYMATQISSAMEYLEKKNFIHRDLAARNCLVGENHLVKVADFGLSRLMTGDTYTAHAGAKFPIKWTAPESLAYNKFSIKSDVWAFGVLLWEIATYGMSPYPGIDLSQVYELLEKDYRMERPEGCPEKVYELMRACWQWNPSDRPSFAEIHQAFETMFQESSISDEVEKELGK
# Procedure: (§2) IC50 values were calculated from a series of percent inhibition values determined at a range of inhibitor concentrations using software routines as implemented in the GraphPad Prism software package.
# KDR kinase [4] = molecular target: T3, KDR kinase (Homo sapiens, UniProt P35968, DEL940-989/E990V); assay: KDR kinase assay K1 (pyruvate kinase/lactate dehydrogenase coupled, spectrophotometric); conditions: Method K1; read-out: KDR Data (IC50)
# T3 sequence (P35968 with tags, fused parts or gaps DEL940-989/E990V): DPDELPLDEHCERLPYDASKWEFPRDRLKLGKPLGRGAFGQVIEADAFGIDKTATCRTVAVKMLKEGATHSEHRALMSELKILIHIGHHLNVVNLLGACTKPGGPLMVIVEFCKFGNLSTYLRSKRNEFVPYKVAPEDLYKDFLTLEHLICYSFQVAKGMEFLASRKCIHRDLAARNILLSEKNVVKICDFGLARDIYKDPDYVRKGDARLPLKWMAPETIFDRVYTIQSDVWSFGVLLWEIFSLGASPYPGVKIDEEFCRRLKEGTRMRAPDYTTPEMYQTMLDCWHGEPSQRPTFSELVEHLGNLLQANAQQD
# Procedure: as §2
# Abl kinase [5] = molecular target: T2, Abl kinase; assay: Abl kinase assay A2 (as A1, 1.1 nM enzyme, 2 h pre-incubation, 0.5 mM ATP)
# Procedure: as §2
# KDR kinase [6] = molecular target: T3, KDR kinase; assay: KDR kinase assay K2 (as K1, 2.1 nM enzyme, 2 h pre-incubation, 1.0 mM ATP); conditions: Method K2; read-out: KDR Data (IC50)
# Procedure: as §2
# B-Raf(V599E) kinase [7] = molecular target: T1, B-Raf(V599E) kinase; assay: B-Raf(V599E) kinase assay B1 (construct 1, MEK1 substrate, coupled spectrophotometric)
# Procedure: as §1
# Target sequence in this assay (P15056 with tags, fused parts or gaps V600E): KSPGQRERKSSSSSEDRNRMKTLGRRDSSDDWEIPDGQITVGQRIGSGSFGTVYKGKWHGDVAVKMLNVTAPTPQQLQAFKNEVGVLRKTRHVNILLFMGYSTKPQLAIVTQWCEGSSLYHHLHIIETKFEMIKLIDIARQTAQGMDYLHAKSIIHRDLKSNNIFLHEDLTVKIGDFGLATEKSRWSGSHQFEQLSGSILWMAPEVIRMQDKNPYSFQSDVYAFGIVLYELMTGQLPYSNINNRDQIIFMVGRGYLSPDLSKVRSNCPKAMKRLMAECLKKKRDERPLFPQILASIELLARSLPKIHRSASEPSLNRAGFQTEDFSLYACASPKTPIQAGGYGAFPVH
# [8] = Method A2, read-out: Abl Data (IC50)
smiles,measurement,setting,value
"NC(=O)C1CCc2ccc(-n3nc(C4CCCC4)cc3NC(=O)Nc3cccc(Cl)c3Cl)cc21 (stereo not drawn) [Example 305, 1-(1-(3-carbamoyl-2,3-dihydro-1H-inden-5-yl)-3-cyclopentyl-1H-pyrazol-5-yl)-3-(2,3-dichlorophenyl)urea]",IC50,B-Raf(V599E) kinase [1],788 nM
same,IC50,[2],19 nM
"CC(C)(C)c1cc(NC(=O)Nc2cccc(Cl)c2Cl)n(-c2cccc(-c3cn[nH]c3)c2)n1 [Example 50, 1-(1-(3-(1H-pyrazol-4-yl)phenyl)-3-t-butyl-1H-pyrazol-5-yl)-3-(2,3-dichlorophenyl)urea]",IC50,Abl kinase [3],380 nM
same,IC50,KDR kinase [4],52 nM
same,IC50,B-Raf(V599E) kinase [1],168 nM
same,IC50,[2],29 nM
"CNC(=O)C1NCCc2cc(-n3nc(C(C)(C)C)cc3NC(=O)Nc3cccc(Oc4cccnc4)c3)ccc21 (stereo not drawn) [Example 180, 1-(3-t-butyl-1-(1-(methylcarbamoyl)-1,2,3,4-tetrahydroisoquinolin-6-yl)-1H-pyrazol-5-yl)-3-(3-(pyridin-3-yloxy)phenyl)urea]",IC50,Abl kinase [5]; [8],9 nM
same,IC50,KDR kinase [6],7.8 nM
same,IC50,B-Raf(V599E) kinase [7],11 nM
same,IC50,[2],65 nM
"CC(C)(C)c1cc(NC(=O)Nc2ccc(F)c(F)c2F)n(-c2cc(CC(=O)NCC(O)CO)c3ccccc3c2)n1 (stereo not drawn) [Example 96, 1-(3-t-butyl-1-(4-(2-(2,3-dihydroxypropyl-amino)-2-oxoethyl)naphthalen-2-yl)-1H-pyrazol-5-yl)-3-(2,3,4-trifluorophenyl)urea]",IC50,Abl kinase [3],100 nM
same,IC50,B-Raf(V599E) kinase [1],378 nM
same,IC50,[2],48 nM
"CC(C)(C)c1cc(NC(=O)Nc2ccc(Cl)cc2)n(-c2cc(CNC(=O)NS(C)(=O)=O)c3ccccc3c2)n1 [Example 74, 1-{3-t-butyl-1-[1-(methanesulfonylureidoamidomethyl)naphthalen-3-yl]-1H-pyrazol-5-yl}-3-(4-chlorophenyl-1-yl)urea]",IC50,Abl kinase [3],2100 nM
same,IC50,KDR kinase [6],2500 nM
same,IC50,B-Raf(V599E) kinase [1],934 nM
"COc1cccc(-n2nc(C(C)(C)C)cc2NC(=O)Nc2cccc(F)c2F)c1 [Example 236, 1-[3-t-butyl-1-(3-methoxy-phenyl)-1H-pyrazol-5-yl]-3-(2,3-difluorophenyl)urea]",IC50,KDR kinase [6],3500 nM
same,IC50,B-Raf(V599E) kinase [1],2050 nM
same,IC50,[2],250 nM
"CC(C)(C)c1cc(NC(=O)Nc2cccc(Oc3cccnc3)c2)n(-c2ccc3c(c2)CC(C(N)=O)NC3)n1 (stereo not drawn) [Example 179, 1-(3-t-butyl-1-(3-carbamoyl-1,2,3,4-tetrahydroisoquinolin-6-yl)-1H-pyrazol-5-yl)-3-(3-(pyridin-3-yloxy)phenyl)urea]",IC50,Abl kinase [5]; [8],3 nM
same,IC50,KDR kinase [6],6.4 nM
same,IC50,B-Raf(V599E) kinase [7],17 nM
same,IC50,[2],96 nM
"CC(C)(C)c1cc(NC(=O)Nc2cc(F)c(F)cc2F)n(-c2cccc(-c3cccnc3)c2)n1 [Example 275, 1-(3-t-butyl-1-(3-(pyridin-3-yl)phenyl)-1H-pyrazol-5-yl)-3-(2,4,5-trifluorophenyl)urea]",IC50,B-Raf(V599E) kinase [1],832 nM
"CC(C)(C)c1cc(NC(=O)Nc2ccc(-c3cccc4c3CNC4=O)cc2)n(-c2cccc(-c3cn[nH]c3)c2)n1 [Example 51, 1-(1-(3-(1H-pyrazol-4-yl)phenyl)-3-t-butyl-1H-pyrazol-5-yl)-3-(4-(1-oxoisoindolin-4-yl)phenyl)urea]",IC50,Abl kinase [5]; [8],52 nM
same,IC50,B-Raf(V599E) kinase [1],29 nM
"Cn1c(=O)c(-c2cccc(NC(=O)Nc3cc(C(C)(C)C)nn3-c3ccc4c(c3)CCN4S(C)(=O)=O)c2)cc2cncnc21 [Example 197, 1-(3-t-butyl-1-(1-(methylsulfonyl)indolin-5-yl)-1H-pyrazol-5-yl)-3-(3-(8-methyl-7-oxo-7,8-dihydropyrido[2,3-d]pyrimidin-6-yl)phenyl)urea]",IC50,Abl kinase [5]; [8],12 nM
same,IC50,B-Raf(V599E) kinase [1],27 nM
same,IC50,[2],28 nM
"CC(C)(C)c1cc(NC(=O)Nc2cc(F)cc(F)c2F)n(-c2cc(CC(N)=O)c3ccccc3c2)n1 [Example 85, 1-(1-(4-(2-amino-2-oxoethyl)naphthalen-2-yl)-3-t-butyl-1H-pyrazol-5-yl)-3-(2,3,5-trifluorophenyl)urea]",IC50,Abl kinase [3],33 nM
same,IC50,B-Raf(V599E) kinase [1],219 nM
"Cn1c(=O)c(-c2cccc(NC(=O)Nc3cc(C(C)(C)C)nn3-c3ccc4[nH]ccc4c3)c2)cc2cncnc21 [Example 118, 1-(3-t-butyl-1-(1H-indol-5-yl)-1H-pyrazol-5-yl)-3-(3-(8-methyl-7-oxo-7,8-dihydropyrido[2,3-d]pyrimidin-6-yl)phenyl)urea]",IC50,Abl kinase [5]; [8],11 nM
same,IC50,B-Raf(V599E) kinase [1],23 nM
"Cn1c(=O)c(-c2cccc(NC(=O)Nc3cc(C4CCCC4)nn3-c3ccc4c(c3)CCC(=O)N4)c2)cc2cncnc21 [Example 134, 1-(3-cyclopentyl-1-(2-oxo-1,2,3,4-tetrahydroquinolin-6-yl)-1H-pyrazol-5-yl)-3-(3-(8-methyl-7-oxo-7,8-dihydropyrido[2,3-d]pyrimidin-6-yl)phenyl)urea]",IC50,Abl kinase [5]; [8],52 nM
same,IC50,B-Raf(V599E) kinase [1],41 nM
"CC(C)(C)c1cc(NC(=O)Nc2cccc(Oc3cccnc3)c2)n(-c2ccc3ncccc3c2)n1 [Example 55, 1-(3-t-butyl-1-(quinolin-6-yl)-1H-pyrazol-5-yl)-3-(3-(pyridin-3-yloxy)phenyl)urea]",IC50,Abl kinase [5]; [8],3.5 nM
same,IC50,KDR kinase [6],4 nM
same,IC50,B-Raf(V599E) kinase [7],5.4 nM
same,IC50,[2],130 nM
"CNC(=O)c1cc(Oc2ccc(NC(=O)Nc3cc(C(C)(C)C)nn3-c3ccc4nc(NC)ccc4c3)cc2)ccn1 [Example 174, 1-(3-t-butyl-1-(2-(methylamino)quinolin-6-yl)-1H-pyrazol-5-yl)-3-(4-(2-(methylcarbamoyl)pyridin-4-yloxy)phenyl)urea]",IC50,Abl kinase [5]; [8],1.8 nM
same,IC50,B-Raf(V599E) kinase [1],245 nM
"CNC(=O)C1Cc2cc(-n3nc(C(C)(C)C)cc3NC(=O)Nc3cccc(Oc4cccnc4)c3)ccc2CN1 (stereo not drawn) [Example 190, 1-(3-t-butyl-1-(3-(methylcarbamoyl)-1,2,3,4-tetrahydroisoquinolin-6-yl)-1H-pyrazol-5-yl)-3-(3-(pyridin-3-yloxy)phenyl)urea]",IC50,Abl kinase [5]; [8],4 nM
same,IC50,KDR kinase [6],8.1 nM
same,IC50,[2],78 nM
"CC(C)(C)c1cc(NC(=O)Nc2cccc(Oc3cccnc3)c2)n(-c2cccc(-c3cccnc3)c2)n1 [Example 277, 1-(3-t-butyl-1-(3-(pyridin-3-yl)phenyl)-1H-pyrazol-5-yl)-3-(3-(pyridin-3-yloxy)phenyl)urea]",IC50,Abl kinase [5]; [8],29 nM
same,IC50,KDR kinase [6],10 nM
same,IC50,B-Raf(V599E) kinase [7],11 nM
same,IC50,[2],180 nM
"CC(C)(C)c1cc(NC(=O)Nc2cccc(Oc3cccnc3)c2)n(-c2ccc3c(c2)CCNC3)n1 [Example 141, 1-(3-t-butyl-1-(1,2,3,4-tetrahydro-isoquinolin-6-yl)-1H-pyrazol-5-yl)-3-(3-(pyridin-3-yloxy)phenyl)urea]",IC50,Abl kinase [5],1.5 nM
same,IC50,KDR kinase [6],8.5 nM
same,IC50,B-Raf(V599E) kinase [7],7.5 nM
same,IC50,[2],730 nM
"CC(C)(C)c1cc(NC(=O)Nc2cccc(Cl)c2Cl)n(-c2ccc3cn[nH]c3c2)n1 [Example 120, 1-(3-t-butyl-1-(1H-indazol-6-yl)-1H-pyrazol-5-yl)-3-(2,3-dichlorophenyl)urea]",IC50,Abl kinase [5]; [8],5100 nM
same,IC50,B-Raf(V599E) kinase [1],214 nM
"CNC(=O)c1cc(Oc2ccc(NC(=O)Nc3cc(C(C)(C)C)nn3-c3ccc4nc(N)ccc4c3)cc2)ccn1 [Example 176, 1-(1-(2-aminoquinolin-6-yl)-3-t-butyl-1H-pyrazol-5-yl)-3-(4-(2-(methylcarbamoyl)pyridin-4-yloxy)phenyl)urea]",IC50,Abl kinase [5]; [8],2.8 nM
same,IC50,B-Raf(V599E) kinase [1],44 nM
"CC(C)(C)c1cc(NC(=O)Nc2cccc(Cl)c2Cl)n(-c2cccc(-c3n[nH]c(=O)o3)c2)n1 [Example 278, 1-(3-t-butyl-1-(3-(5-oxo-4,5-dihydro-1,3,4-oxadiazol-2-yl)phenyl)-1H-pyrazol-5-yl)-3-(2,3-dichlorophenyl)urea]",IC50,B-Raf(V599E) kinase [1],153 nM
"COc1cccc(-n2nc(C(C)(C)C)cc2NC(=O)Nc2ccccc2F)c1 [Example 235, 1-[3-t-butyl-1-(3-methoxy-phenyl)-1H-pyrazol-5-yl]-3-(2-fluorophenyl)urea]",IC50,KDR kinase [6],3500 nM
same,IC50,B-Raf(V599E) kinase [1],1040 nM
same,IC50,[2],120 nM
"CNC(=O)c1cc(Oc2cccc(NC(=O)Nc3cc(C(C)(C)C)nn3-c3ccc4[nH]c(=O)ccc4c3)c2)ccn1 [Example 157, 1-(3-t-butyl-1-(2-oxo-1,2-dihydroquinolin-6-yl)-1H-pyrazol-5-yl)-3-(3-(2-(methylcarbamoyl)pyridin-4-yloxy)phenyl)urea]",IC50,Abl kinase [5]; [8],31 nM
same,IC50,B-Raf(V599E) kinase [1],40 nM
"CC(C)(C)c1cc(NC(=O)Nc2cccc(Cl)c2Cl)n(-c2ccc3[nH]ccc3c2)n1 [Example 115, 1-(3-t-butyl-1-(1H-indol-5-yl)-1H-pyrazol-5-yl)-3-(2,3-dichlorophenyl)urea]",IC50,Abl kinase [3],170 nM
same,IC50,KDR kinase [6],810 nM
same,IC50,B-Raf(V599E) kinase [1],979 nM
same,IC50,[2],490 nM
